Laboratory results: paper PMC6480704, “Antiproliferative Aspidosperma-Type Monoterpenoid Indole Alkaloids from Bousigonia mekongensis Inhibit Tubulin Polymerization” (Molecules, 2019)
“Also recorded” adds a separate entry of the source. Read-outs that look alike come from different tables or passages of the source.

Key:
[1] = system: KB-VIN (VIN-resistant KB subline showing MDR phenotype by overexpressing P-gp); assay: Antiproliferative SRB assay, KB-VIN; details: Homo sapiens, KBVIN, 72 h, read-out: IC50 KB-VIN
Method: (§1) We tested the fourteen known aspidosperma-type alkaloids (1–14) against chemosensitive KB (originally isolated from epidermoid carcinoma of the nasopharynx) and P-gp over-expressing multidrug-resistant (MDR) KB subline KB-VIN, as well as three additional human cancer cell lines, A549 (lung carcinoma), MDA-MB-231 (triple negative breast cancer), and MCF-7 (estrogen receptor-positive breast cancer), using a sulforhodamine B (SRB) assay (Table 1).
(§2) Antiproliferative activity was determined by the sulforhodamine B (SRB) colorimetric assay as previously described. In brief, human tumor cell lines were cultured in RPMI-1640 medium containing 2 mM l-glutamine and 25 mM HEPES (Gibco), supplemented with 10% fetal bovine serum (Speciality Media), 100 µg/mL streptomycin, 100 IU/mL penicillin, and 0.25 µg/mL amphotericin B (Corning). MDR stock cells (KB-VIN) were maintained in the presence of 100 nM vincristine (VIN) (Sigma-Aldrich, Saint Louis, MI, USA).
(§3) Freshly trypsinized cell suspensions were seeded in 96-well microtiter plates at densities of 4000–11,000 cells per well (based on the cell lines) with compounds. After 72 h in culture with test compounds, cells were fixed in 10% trichloroacetic acid followed by staining with 0.04% sulforhodamine B (Sigma-Aldrich). The bound SRB was solubilized in 10 mM Tris-base and the absorbance at 515 nm was measured using a Microplate Reader (ELx800, Bio-Tek Instruments, Winooski, VT, USA) operated by Gen5 software (BioTek) after solubilizing the protein-bound dye with 10 mM Tris base. The mean IC50 is the concentration of agent that reduced cell growth by 50% compared with vehicle (DMSO) control under the experimental conditions and is the average from at least three independent experiments with duplicate samples.
(§4) The following human tumor cell lines were used in the assay: A549 (lung carcinoma), MDA-MB-231 (triplen-egative breast cancer), KB (originally isolated from epidermoid carcinoma of the nasopharynx), KB-VIN (VIN-resistant KB subline showing MDR phenotype by overexpressing P-gp), MCF-7 (estrogen receptor (ER)-positive, HER2-negative breast cancer). […] All cell lines were obtained from the Lineberger Comprehensive Cancer Center (UNC-CH) or from ATCC (Manassas, VA), except KB-VIN, which was a generous gift from Professor Y.-C. Cheng (Yale University). Paclitaxel was purchased from Sigma-Aldrich.

[2] = target: T1, tubulin (colchicine site) (Bos taurus, UniProt P81947+Q6B856); assay: Inhibition of [3H]colchicine binding to tubulin; design: species or system bovine; details: 5 μM [3H]colchicine, 1 μM tubulin, 5 μM test compound, 37 °C, 10 min, NA = not active; for inhibition at 5 µM: read-out: Tubulin Assay ICB: percent inhibition of [3H]colchicine binding
T1 construct: electrophoretically homogeneous bovine brain tubulin; from tissue; host or cells: bovine brain
Method: The data for 6 and 7 indicate that both alkaloids bind to tubulin and inhibit its assembly, and these effects are closely related to their antiproliferative activities against tumor cells. Thus, we further investigated whether the inhibition of tubulin polymerization was the major action of these alkaloids.
(§5) Inhibitory effects of compounds on tubulin assembly were evaluated using electrophoretically homogeneous bovine brain tubulin as described previously using 1.0 mg/mL (10 μM) tubulin. The turbidity development as tubulin assembly was initiated by adding 0.4 mM GTP and followed for 20 min at 30 °C following a rapid temperature jump. Compound concentrations as EC50 values that inhibited the increase in turbidity by 50% relative to a control sample were determined. In colchicine inhibition assays, tubulin (1.0 μM) was incubated with 5.0 μM [^3H] colchicine and 5.0 μM test compound at 37 °C for 10 min, when about 40–60% of maximum colchicine binding occurs in control samples.

[3] = system: A549, MDA-MB-231, KB, KB-VIN, and MCF-7; assay: Antiproliferative SRB assay, values stated across several cell lines; assay type: cell-based, human; details: for antiproliferative activity (in words): five human tumor cell lines including MDR subline KB-VIN
Method: as §1, §2, §3, §4

[4] = system: MDA-MB-231 (triple negative breast cancer); assay: Antiproliferative SRB assay, MDA-MB-231; assay type: cell-based; details: Homo sapiens, MDA-MB-231, SRB assay, 72 h, read-out: IC50 MDA-MB-231
Method: as §1, §2, §3, §4

[5] = system: KB-VIN cells; assay: Cell cycle analysis by flow cytometry (PI staining); assay type: cell-based, human; details: 24 h, 1 × IC50 or 3 × IC50
Method: KB-VIN cells were treated with compounds 3, 4, 6, 7, and 13 at their IC50 (1 × IC50) or three-fold IC50 (3 × IC50) concentration, and the cell cycle progression was analyzed by flow cytometer (Figure 2A).
(§6) Figure 2 Mitotic defects in KB-VIN cells treated by compounds. […] Cell cycle distributions (sub-G1, G1, S, G2/M) were analyzed using flow cytometry after staining cells with propidium iodide (PI). […] Fixed cells were stained with antibodies to α-tubulin (green) and phospho-histone H3 (pH3, red), and DAPI was used for DNA (blue). Stained cells were observed by confocal fluorescence microscope. The represented image is a projection of 15~20 optical sections acquired at 0.5~1 µm intervals. […] Bar, 0.025 mm. Additional images are available in Supplementary Figure S1.
KB-VIN cells were seeded in 12-well plates at a density of 1 × 10^5 per well and incubated overnight. […] The DNA contents of stained cells were analyzed by flow cytometer (LSRFortessa, BD Biosciences) controlled by FACSDiva software (BD Biosciences). Paclitaxel (PXL) was used at 3 or 6 µM. […] Experiments were repeated a minimum of two times.

[6] = system: KB-VIN cells; assay: Immunofluorescence staining of α-tubulin, pH3 and DNA; assay type: cell-based, human; details: 24 h, 3 × IC50
Method: as §6
To determine whether the cell cycle arrest was due to an antimicrotubule effect, cells treated with compounds were analyzed by immunocytochemistry using antibodies to α-tubulin for microtubules and mitotic spindles, Ser10-phosphorylated histone H3 (pH3) for the condensed chromatins and 4′,6-diamidino-2-phenylindole (DAPI) for DNA. […] Thus, we concluded that these alkaloids are tubulin polymerization inhibitors.
Immunocytochemical analysis was performed as previously described. […] After treatment of cells with the agent for 24 h, cells were fixed with 4% paraformaldehyde in PBS and permeabilized with 0.5% Triton X-100 in PBS. Fixed cells were labeled with mouse monoclonal antibody to α-tubulin (B5-1-2, Sigma) and rabbit IgG to Ser10-phosphorylated histone H3 (p-H3) (#06570, EMD Millipore), followed by FITC-conjugated antibody to mouse IgG (Sigma) and Alexa Fluor 549-conjugated antibody to rabbit IgG (Life Technologies). Nuclei were labeled with DAPI (Sigma). Fluorescently-labeled cells were observed using a confocal microscope (Zeiss, LSM700) with ZEN (black edition) software (Zeiss). The 15~20 optical sections acquired at 0.5~1 µm intervals were stacked and reconstructed using ZEN (black edition) software. Experiments were repeated at least twice for each compound. Final images were prepared using Adobe Photoshop CS3.

[7] = system: A549 (lung carcinoma); assay: Antiproliferative SRB assay, A549; assay type: cell-based; details: Homo sapiens, A549, SRB assay, 72 h, read-out: IC50 A549
Method: as §1, §2, §3, §4

[8] = target: T2, bovine brain tubulin (Bos taurus, UniProt P81947+Q6B856); assay: Inhibition of purified tubulin assembly (turbidity); assay type: biochemical; details: 10 μM tubulin, 0.4 mM GTP, 20 min at 30 °C; NA = not active (IC50 > 40 µM); read-out: Tubulin Assay ITA: inhibition of purified tubulin assembly, EC50
T2 construct: electrophoretically homogeneous bovine brain tubulin; from tissue; host or cells: bovine brain
Method: as §5

[9] = system: KB (originally isolated from epidermoid carcinoma of the nasopharynx); assay: Antiproliferative SRB assay, KB; assay type: cell-based; details: Homo sapiens, SRB assay, 72 h, read-out: IC50 KB
Method: as §1, §2, §3, §4

[10] = system: MCF-7 (estrogen receptor-positive breast cancer); assay: Antiproliferative SRB assay, MCF-7; assay type: cell-based; details: Homo sapiens, MCF7, SRB assay, 72 h, read-out: IC50 MCF-7
Method: as §1, §2, §3, §4

T1 sequence (P81947 whole entry): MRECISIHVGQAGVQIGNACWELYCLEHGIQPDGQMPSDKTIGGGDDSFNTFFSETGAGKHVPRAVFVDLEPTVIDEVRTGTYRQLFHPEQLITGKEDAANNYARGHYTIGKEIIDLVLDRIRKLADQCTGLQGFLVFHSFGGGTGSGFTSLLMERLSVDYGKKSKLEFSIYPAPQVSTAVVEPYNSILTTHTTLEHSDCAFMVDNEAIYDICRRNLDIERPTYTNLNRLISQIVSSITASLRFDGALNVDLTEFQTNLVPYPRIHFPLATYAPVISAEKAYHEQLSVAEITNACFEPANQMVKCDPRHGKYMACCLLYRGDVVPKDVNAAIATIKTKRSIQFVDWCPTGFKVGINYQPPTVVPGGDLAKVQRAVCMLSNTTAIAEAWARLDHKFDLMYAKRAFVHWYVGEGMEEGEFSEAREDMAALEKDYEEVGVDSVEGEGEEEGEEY
T1 sequence (Q6B856 whole entry): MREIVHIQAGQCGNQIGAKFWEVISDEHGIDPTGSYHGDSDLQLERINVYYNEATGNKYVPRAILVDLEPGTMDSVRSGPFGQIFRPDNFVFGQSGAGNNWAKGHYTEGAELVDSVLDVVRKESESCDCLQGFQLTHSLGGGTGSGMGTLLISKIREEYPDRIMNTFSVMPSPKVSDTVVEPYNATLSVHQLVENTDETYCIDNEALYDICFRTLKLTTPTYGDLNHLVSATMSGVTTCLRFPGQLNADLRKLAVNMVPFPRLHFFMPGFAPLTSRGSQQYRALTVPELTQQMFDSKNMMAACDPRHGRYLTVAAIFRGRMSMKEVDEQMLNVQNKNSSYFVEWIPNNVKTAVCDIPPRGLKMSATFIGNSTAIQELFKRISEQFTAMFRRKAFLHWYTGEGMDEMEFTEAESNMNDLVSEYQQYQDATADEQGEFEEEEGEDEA
T2 sequence (P81947 whole entry): as the sequence (P81947 whole entry) above
T2 sequence (Q6B856 whole entry): as the sequence (Q6B856 whole entry) above

Compound	IC50 [1] [µM]	inhibition at 5 µM [2] [%]	fold rise in potency by a methoxy group at C-11 ([3]; 6 compared with 5, 9 compared with 8)	IC50 ([3]; Homo sapiens, A549, KB, KB-VIN, range stated for the group of compounds, read-out: IC50 values ranging over A549, KB and KB-VIN cells) [µM]	antiproliferative activity (in words) [3]	IC50 [4] [nM]	effect on cell cycle progression [5]	microtubule / mitotic spindle morphology [6]	IC50 [7] [nM]	EC50 [8] [µM]	IC50 [9] [nM]	IC50 [10] [nM]	IC50 ([3]; five human tumor cell lines, read-out: IC50 range over the cell lines tested) [µM]	Tubulin Assay ICB: percent inhibition of [3H]colchicine binding [2]	IC50 ([4]; positive controls, unit nM) [nM]	IC50 ([7]; positive controls, unit nM) [nM]	IC50 ([9]; positive controls, unit nM) [nM]	IC50 ([10]; positive controls, unit nM) [nM]
CC[C@@]12CC(C(=O)OC)=C3Nc4cc(OC)ccc4[C@@]34CCN(C[C@@H]3O[C@@H]31)[C@@H]24 [Compound 6, 14,15-α-epoxy-11-methoxytabersonine]	0.5	54 ± 0.8	~ 60 fold	0.5 to 0.9	exhibited antiproliferative activity against all cell lines; also recorded: significant antiproliferative effects against all five tumor cell lines	800	accumulation of cells in the G2/M phase; also recorded: cell cycle arrest at G2/M	dotted tubulin aggregations without spindles	500	0.7	500	800	–	–	–	–	–	–
CC[C@@]12CC(C(=O)OC)=C3Nc4ccccc4[C@@]34CCN(C[C@@H]3O[C@@H]31)[C@@H]24 [Compound 5, lochnericine]	> 40	0	–	–	essentially inactive	> 40000	–	–	> 40000	> 40	> 40000	> 40000	–	–	–	–	–	–
CC[C@@]12CC(C(=O)OC)=C3Nc4cc(O)ccc4[C@@]34CCN(C[C@@H]3O[C@@H]31)[C@@H]24 [Compound 7, 11-hydroxylochnericine]	6.1 ± 0.4	35 ± 1	–	–	exhibited antiproliferative activity against all cell lines; also recorded: significant antiproliferative effects against all five tumor cell lines	9800 ± 900	accumulation of cells in the G2/M phase; also recorded: cell cycle arrest at G2/M	dotted tubulin aggregations without spindles	5600 ± 100	4.6 ± 0.1	5400 ± 300	10800 ± 800	–	–	–	–	–	–
CC[C@@]12CC(C(=O)OC)=C3Nc4ccccc4[C@@]34CCN([C@H](CC(C)=O)[C@@H]3O[C@@H]31)[C@@H]24 [Compound 4, melodinine S]	6.3 ± 0.2	–	–	–	exhibited antiproliferative activity against all cell lines; also recorded: significant antiproliferative effects against all five tumor cell lines	8200 ± 800	accumulation of cells in the G2/M phase; also recorded: cell cycle arrest at G2/M	dotted tubulin aggregations without spindles	5600	–	5800 ± 300	10000 ± 900	5.6 to 10	–	–	–	–	–
COc1ccc(/C=C\c2cc(OC)c(OC)c(OC)c2)cc1O [CA-4, combretastatin A-4, reference compound]	0.0038 ± 0.0001	100 ± 0.4	–	–	–	–	–	–	–	–	–	–	–	totally inhibited	8.2 ± 0.5	5.5 ± 0.1	3.6 ± 0.1	487 ± 11
